Assay results taken from patent US8247458B2, “Therapeutic agent for diabetic neuropathy” (Taiho Pharmaceutical Co., Ltd., priority 2006, dated 2012).

System: diabetes model rats induced by STZ
Test: von Frey test in streptozotocin-induced diabetic neuropathy model rats
Type: in vivo, rat
Conditions: vs STZ control group; for suppression effect of neuropathy (pain threshold, von Frey test): p value under 0.001%; for analgesic effect (pain threshold, threshold of the escape reaction of limb, von Frey test): first day of the measurement (first dose)
Protocol: By use of male rats with the weight of more than 160 g, 50 mg/kg of streptozotocin (STZ, Sigma-Aldrich Co.) was administered thereto intravenously at the dose of 2 mL/kg to prepare the diabetes model rats induced by STZ (Malcangio M. et al., Pain, 1998). Animals with the blood sugar level of more than 200 mg/dL were adopted as diabetes models. For the measurements of the blood sugar level, the blood (2 μL) collected from the tail vein was measured by use of a measurement chip (Glutest Sensor, Arkray, Inc.) and a portable instrument for measuring blood sugar of Glutest PRO R (Model GT-1661, Arkray, Inc.).
The pain threshold was measured by carrying out the von Frey test on both right and left foot pats of the rats by use of Dynamic Planter Aesthesiometer (Model No. 37400, Ugo Basile, Inc.), and its maximum pressure was set to be 30.0 g, and the arriving time to the maximum pressure was set to be 40 seconds. Eight days after the administration of STZ, the individuals with the pain threshold of higher than a certain level were selected and divided into the groups so that the measured pain thresholds might become even in each group. To the diabetes model rats induced by STZ was administered continuously for one week either 30 mg/kg of suplatast tosylate intraperitoneally or 100 mg/kg of the same orally, and the intraperitoneally administered group and the orally administered group were produced respectively. The diabetes model rats induced by STZ to which solvent (distilled water) was administered orally were designated to the STZ control group. Moreover, the animals of no treatment, i.e. no administration of STZ, to which solvent (distilled water) was administered orally were used as the normal control group. On the 1st, 4th and 7th days after the administration, were measured the pain thresholds of the right and left foot pats for each of the group (8 rats/group), and the analgesic effect was estimated by the threshold of the escape reaction of limb (the total of pain threshold value both of the right and left foot pats). The pain thresholds were measured from 1 to 1.5 hours after the administration, respectively. The Student's test, which is a test for every 2 groups, was applied to the significant difference test of the average value, and the significant level were shown by the following indications:
## (Normal control group vs. STZ control group): p value under 0.001%, and
** (STZ control group vs. orally administered group or intraperitoneally administered group): p value under 0.001%
The orally administered group and the intraperitoneally administered group were compared with the STZ control groups, respectively. Moreover, the STZ control groups were compared with the normal control groups, and the establishments of the diabetes neuropathy model were respectively judged.

## CCOCC(O)COc1ccc(NC(=O)CC[S+](C)C)cc1.Cc1ccc(S(=O)(=O)[O-])cc1 (racemic) [suplatast tosylate, (±)-[2-[4-(3-Ethoxy-2-hydroxypropoxy)phenylcarbamoyl]-ethyl]dimethylsulfonium p-toluenesulfonate]
30 mg/kg intraperitoneal daily, 4th day
  suppression effect of neuropathy (pain threshold, von Frey test): significant suppression effects of neuropathy
30 mg/kg intraperitoneal daily, 7th day
  suppression effect of neuropathy (pain threshold, von Frey test): significant suppression effects of neuropathy
30 mg/kg intraperitoneal
  analgesic effect (pain threshold, threshold of the escape reaction of limb, von Frey test): analgesic effects were not found
100 mg/kg oral daily, 4th day
  suppression effect of neuropathy (pain threshold, von Frey test): significant suppression effects of neuropathy
100 mg/kg oral daily, 7th day
  suppression effect of neuropathy (pain threshold, von Frey test): significant suppression effects of neuropathy
100 mg/kg oral
  analgesic effect (pain threshold, threshold of the escape reaction of limb, von Frey test): analgesic effects were not found
